Results taken from patent US20230406885A1, “CYCLIC PEPTIDES FOR TRAPPING INTERLEUKIN-1 BETA” (MERCK SHARP & DOHME LLC, priority 2022, published 2023).
*1 amine or outer side, *2 acyl side, *3 side chain or, on linkers, in order; H or OH if unused. Where a SMILES comes first, the peptide text is derived from it. [ ]: non-standard residue; d: D form. Bip(4'-COOH) = N[C@@H](Cc1ccc(-c2ccc(C(=O)O)cc2)cc1)C(=O)O; 1Nal(3S-Me) = C[C@@H](c1cccc2ccccc12)[C@H](N)C(=O)O; hPhe(4-CF3) = N[C@@H](CCc1ccc(C(F)(F)F)cc1)C(=O)O; X8 = O=C([C@H](CCc1cccc(C(F)(F)F)c1)N[*:1])[*:2]; X13 = O=C([C@H](CCc1ccccc1C(F)(F)F)N[*:1])[*:2]; Phe(4-COOH) = N[C@@H](Cc1ccc(C(=O)O)cc1)C(=O)O; h3Pal(5-CN) = N#Cc1cncc(CC[C@H](N)C(=O)O)c1; Pro(4R-NH2) = N[C@H]1CN[C@H](C(=O)O)C1; Ala(4-THP) = N[C@@H](CC1CCOCC1)C(=O)O; AEF = NCCOc1ccc(C[C@H](N)C(=O)O)cc1; hTyr = N[C@@H](CCc1ccc(O)cc1)C(=O)O; 4Pal = N[C@@H](Cc1ccncc1)C(=O)O; dDab = NCC[C@@H](N)C(=O)O; dNMeA = CN[C@H](C)C(=O)O; Dab = NCC[C@H](N)C(=O)O; Aib = CC(C)(N)C(=O)O

target: T1, Recombinant human IL-1β (Homo sapiens, UniProt P01584); experiment: IL-6 assay in MRC5 cells: inhibition of IL-1β induced IL-6 secretion (AlphaLISA); assay type: cell-based; conditions: inhibition of IL-1β induced IL-6 secretion in MRC5 cells; IL-1β pre-incubated 1 hour with compound; read-out: MRC5 IC50
T1 construct: purchased BioLegend 579404
T1 sequence (P01584 117-269): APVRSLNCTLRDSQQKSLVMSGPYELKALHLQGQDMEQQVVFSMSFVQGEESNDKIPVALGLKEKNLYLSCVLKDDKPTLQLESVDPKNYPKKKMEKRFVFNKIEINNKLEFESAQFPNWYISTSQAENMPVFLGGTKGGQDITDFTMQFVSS
How it was run: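 IL-1β at 2×EC80 in seeding medium (EMEM, 0.025% BSA) preincubated 1 h at ambient temperature with compound, then 3000 MRC5 cells/well added and incubated overnight at 37 °C, 5% CO2. IL-6 in conditioned medium quantified by AlphaLISA; IC50 from 4-parameter logistic fit.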

Row | Compound | IC50
1 | CC(=O)NCCOc1ccc(C[C@@H]2NC(=O)[C@H](CCc3cncc(C#N)c3)NC(=O)[C@@H](CCN)NC(=O)CNC(=O)[C@H](Cc3ccncc3)NC(=O)[C@H](Cc3ccc(-c4ccc(C(=O)O)cc4)cc3)NC(=O)CNC(=O)[C@@H](C)N(C)C(=O)[C@H](CC(=O)O)NC(=O)[C@H]([C@@H](C)c3cccc4ccccc34)NC(=O)[C@@H]3C[C@@H](N)CN3C(=O)CNC(=O)[C@H](Cc3ccc(C(=O)O)cc3)NC(=O)[C@H](Cc3c[nH]c4ccccc34)NC2=O)cc1 [Example 102] (cyclo([AEF](Ac)W[Phe(4-COOH)]G[Pro(4R-NH2)][1Nal(3S-Me)]D[dNMeA]G[Bip(4'-COOH)][4Pal]G[dDab][h3Pal(5-CN)])) | 0.0421 nM
2 | CC(=O)NCCOc1ccc(C[C@@H]2NC(=O)[C@H](CCc3cncc(C#N)c3)NC(=O)[C@@H](CCN)NC(=O)CNC(=O)[C@H](CC3CCOCC3)NC(=O)[C@H](Cc3ccc(-c4ccc(C(=O)O)cc4)cc3)NC(=O)CNC(=O)[C@@H](C)N(C)C(=O)[C@H](CC(=O)O)NC(=O)[C@H]([C@@H](C)c3cccc4ccccc34)NC(=O)[C@@H]3C[C@@H](N)CN3C(=O)CNC(=O)[C@H](Cc3ccc(C(=O)O)cc3)NC(=O)[C@H](Cc3c[nH]c4ccccc34)NC2=O)cc1 [Example 106] (cyclo([AEF](Ac)W[Phe(4-COOH)]G[Pro(4R-NH2)][1Nal(3S-Me)]D[dNMeA]G[Bip(4'-COOH)][Ala(4-THP)]G[dDab][h3Pal(5-CN)])) | 0.0263 nM
3 | CC(=O)NCCOc1ccc(C[C@@H]2NC(=O)[C@H](CCc3ccc(O)cc3)NC(=O)C(C)(C)NC(=O)CNC(=O)[C@H](CCCCN)NC(=O)[C@H](Cc3ccc(-c4ccc(C(=O)O)cc4)cc3)NC(=O)CNC(=O)[C@@H](C)N(C)C(=O)[C@H](CC(=O)O)NC(=O)[C@H]([C@@H](C)c3cccc4ccccc34)NC(=O)[C@@H]3C[C@@H](N)CN3C(=O)CNC(=O)[C@H](Cc3ccc(C(=O)O)cc3)NC(=O)[C@H](Cc3c[nH]c4ccccc34)NC2=O)cc1 [Example 107] (cyclo([AEF](Ac)W[Phe(4-COOH)]G[Pro(4R-NH2)][1Nal(3S-Me)]D[dNMeA]G[Bip(4'-COOH)]KG[Aib][hTyr])) | 0.0582 nM
4 | CC(=O)NCCOc1ccc(C[C@@H]2NC(=O)[C@H](CCc3ccc(O)cc3)NC(=O)[C@@H](C)N(C)C(=O)CNC(=O)[C@H](CCCCN)NC(=O)[C@H](Cc3ccc(-c4ccc(C(=O)O)cc4)cc3)NC(=O)CNC(=O)[C@@H](C)N(C)C(=O)[C@H](CC(=O)O)NC(=O)[C@H]([C@@H](C)c3cccc4ccccc34)NC(=O)[C@@H]3C[C@@H](N)CN3C(=O)CNC(=O)[C@H](Cc3ccc(C(=O)O)cc3)NC(=O)[C@H](Cc3c[nH]c4ccccc34)NC2=O)cc1 [Example 109] (cyclo([AEF](Ac)W[Phe(4-COOH)]G[Pro(4R-NH2)][1Nal(3S-Me)]D[dNMeA]G[Bip(4'-COOH)]KG[dNMeA][hTyr])) | 0.0775 nM

Other lines, results leading:

Row | IC50 | Compound
5 | 0.274 nM | CC(=O)NCCOc1ccc(C[C@@H]2NC(=O)[C@H](CCc3ccc(C(F)(F)F)cc3)NC(=O)[C@@H](C)NC(=O)[C@H](CCN)NC(=O)[C@H](Cc3ccncc3)NC(=O)[C@H](Cc3ccc(-c4ccc(C(=O)O)cc4)cc3)NC(=O)CNC(=O)[C@@H](C)N(C)C(=O)[C@H](CC(=O)O)NC(=O)[C@H]([C@@H](C)c3cccc4ccccc34)NC(=O)[C@@H]3C[C@@H](N)CN3C(=O)CNC(=O)[C@H](Cc3ccc(C(=O)O)cc3)NC(=O)[C@H](Cc3c[nH]c4ccccc34)NC2=O)cc1 [Example 100] (cyclo([AEF](Ac)W[Phe(4-COOH)]G[Pro(4R-NH2)][1Nal(3S-Me)]D[dNMeA]G[Bip(4'-COOH)][4Pal][Dab][dA][hPhe(4-CF3)]))
6 | 0.247 nM | CC(=O)NCCOc1ccc(C[C@@H]2NC(=O)[C@H](CCc3ccc(O)cc3)NC(=O)[C@@H](C)NC(=O)[C@H](CCN)NC(=O)[C@H](Cc3ccncc3)NC(=O)[C@H](Cc3ccc(-c4ccc(C(=O)O)cc4)cc3)NC(=O)CNC(=O)[C@@H](C)N(C)C(=O)[C@H](CC(=O)O)NC(=O)[C@H]([C@@H](C)c3cccc4ccccc34)NC(=O)[C@@H]3C[C@@H](N)CN3C(=O)CNC(=O)[C@H](Cc3ccc(C(=O)O)cc3)NC(=O)[C@H](Cc3c[nH]c4ccccc34)NC2=O)cc1 [Example 101] (cyclo([AEF](Ac)W[Phe(4-COOH)]G[Pro(4R-NH2)][1Nal(3S-Me)]D[dNMeA]G[Bip(4'-COOH)][4Pal][Dab][dA][hTyr]))
7 | 0.066 nM | CC(=O)NCCOc1ccc(C[C@@H]2NC(=O)[C@H](CCc3ccccc3C(F)(F)F)NC(=O)[C@@H](C)NC(=O)[C@H](CO)NC(=O)[C@H](Cc3ccncc3)NC(=O)[C@H](Cc3ccc(-c4ccc(C(=O)O)cc4)cc3)NC(=O)CNC(=O)[C@@H](C)N(C)C(=O)[C@H](CC(=O)O)NC(=O)[C@H]([C@@H](C)c3cccc4ccccc34)NC(=O)[C@@H]3C[C@@H](N)CN3C(=O)CNC(=O)[C@H](Cc3ccc(C(=O)O)cc3)NC(=O)[C@H](Cc3c[nH]c4ccccc34)NC2=O)cc1 [Example 103] (cyclo([AEF](Ac)W[Phe(4-COOH)]G[Pro(4R-NH2)][1Nal(3S-Me)]D[dNMeA]G[Bip(4'-COOH)][4Pal]S[dA][X13]))
8 | 0.041 nM | CC(=O)NCCOc1ccc(C[C@@H]2NC(=O)[C@H](CCc3cccc(C(F)(F)F)c3)NC(=O)[C@@H](C)NC(=O)[C@H](CO)NC(=O)[C@H](Cc3ccncc3)NC(=O)[C@H](Cc3ccc(-c4ccc(C(=O)O)cc4)cc3)NC(=O)CNC(=O)[C@@H](C)N(C)C(=O)[C@H](CC(=O)O)NC(=O)[C@H]([C@@H](C)c3cccc4ccccc34)NC(=O)[C@@H]3C[C@@H](N)CN3C(=O)CNC(=O)[C@H](Cc3ccc(C(=O)O)cc3)NC(=O)[C@H](Cc3c[nH]c4ccccc34)NC2=O)cc1 [Example 104] (cyclo([AEF](Ac)W[Phe(4-COOH)]G[Pro(4R-NH2)][1Nal(3S-Me)]D[dNMeA]G[Bip(4'-COOH)][4Pal]S[dA][X8]))
9 | 0.091 nM | CC(=O)NCCOc1ccc(C[C@@H]2NC(=O)[C@H](CCc3ccc(C(F)(F)F)cc3)NC(=O)[C@@H](C)NC(=O)[C@H](CO)NC(=O)[C@H](Cc3ccncc3)NC(=O)[C@H](Cc3ccc(-c4ccc(C(=O)O)cc4)cc3)NC(=O)CNC(=O)[C@@H](C)N(C)C(=O)[C@H](CC(=O)O)NC(=O)[C@H]([C@@H](C)c3cccc4ccccc34)NC(=O)[C@@H]3C[C@@H](N)CN3C(=O)CNC(=O)[C@H](Cc3ccc(C(=O)O)cc3)NC(=O)[C@H](Cc3c[nH]c4ccccc34)NC2=O)cc1 [Example 105] (cyclo([AEF](Ac)W[Phe(4-COOH)]G[Pro(4R-NH2)][1Nal(3S-Me)]D[dNMeA]G[Bip(4'-COOH)][4Pal]S[dA][hPhe(4-CF3)]))
10 | 0.102 nM | CC(=O)NCCOc1ccc(C[C@@H]2NC(=O)[C@H](CCc3ccc(O)cc3)NC(=O)[C@@H](C)NC(=O)CNC(=O)[C@H](CCCCN)NC(=O)[C@H](Cc3ccc(-c4ccc(C(=O)O)cc4)cc3)NC(=O)CNC(=O)[C@@H](C)N(C)C(=O)[C@H](CC(=O)O)NC(=O)[C@H]([C@@H](C)c3cccc4ccccc34)NC(=O)[C@@H]3C[C@@H](N)CN3C(=O)CNC(=O)[C@H](Cc3ccc(C(=O)O)cc3)NC(=O)[C@H](Cc3c[nH]c4ccccc34)NC2=O)cc1 [Example 108] (cyclo([AEF](Ac)W[Phe(4-COOH)]G[Pro(4R-NH2)][1Nal(3S-Me)]D[dNMeA]G[Bip(4'-COOH)]KG[dA][hTyr]))
